pKi: −log10 of the molar value.

Assay [1] deals with T1, Adenosine receptor A1 (Rattus norvegicus, UniProt P25099).
T1 sequence (P25099 whole entry): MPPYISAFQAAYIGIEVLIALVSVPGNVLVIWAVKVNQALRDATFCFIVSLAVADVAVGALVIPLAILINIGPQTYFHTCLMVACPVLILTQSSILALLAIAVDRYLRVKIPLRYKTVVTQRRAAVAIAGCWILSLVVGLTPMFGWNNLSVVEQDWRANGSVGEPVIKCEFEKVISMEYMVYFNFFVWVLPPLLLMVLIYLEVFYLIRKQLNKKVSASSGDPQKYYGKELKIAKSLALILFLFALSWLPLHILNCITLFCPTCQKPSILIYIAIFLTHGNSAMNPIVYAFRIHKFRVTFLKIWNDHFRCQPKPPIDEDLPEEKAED
Description: Binding affinity against Adenosine A1 receptor using [3H]CHA in rat brain membranes. Format: cell membranes.

The target in assay [2] is Adenosine A2 receptor (Rattus norvegicus, UniProt P29276+P30543). As to the kind of experiment: Binding affinity against Adenosine A2 receptor using [3H]NECA with 50 nM CPA in rat striatal brain membranes. Format: cell membranes, Membrane.

One may read the pKi as the Ki on a negative log10 scale, so that one unit is a factor of ten. `OC[C@H]1O[C@@H](n2cnc3c(NC4CC5CCC4C5)ncnc32)[C@H](O)[C@@H]1O` (some centres undefined): the pKi in assay [1] is 9.38. As usually defined, the Ki is a dissociation constant, usually derived from enzyme kinetics or from competition with a known ligand. Read a low Ki as higher affinity. As to `O[C@@H]1[C@H](O)[C@@H](CCl)O[C@H]1n1cnc2c(NC3CCCC3)ncnc21`, the pKi in assay [1] is 9.14. In assay [2], this compound came in with a Ki of 1870 nM.

In the case of `O[C@@H]1[C@H](O)[C@@H](CCl)O[C@H]1n1cnc2c(NC3C[C@H]4CCC3C4)ncnc21` (some centres undefined), the Ki in assay [2] is reported as 2100 nM. This counts as single-digit micromolar. Compound `O[C@@H]1[C@H](O)[C@@H](CCl)O[C@H]1n1cnc2c(N[C@H]3C[C@H]4CCC3C4)ncnc21` displayed a Ki in assay [2] of 3900 nM. On to `OC[C@H]1O[C@@H](n2cnc3c(NC4C[C@H]5CC[C@@H]4C5)ncnc32)[C@H](O)[C@@H]1O` (some centres undefined), for which, in assay [1], the pKi is 9.04.

Regarding `OC[C@H]1O[C@@H](n2cnc3c(N[C@@H]4C[C@@H]5CC[C@H]4C5)ncnc32)[C@H](O)[C@@H]1O`, the pKi in assay [1] was 8.78.

On to `OC[C@H]1O[C@@H](n2cnc3c(N[C@H]4CC5CCC4C5)ncnc32)[C@H](O)[C@@H]1O` (single isomer, unassigned), for which the pKi in assay [1] was 9.52. In turn, `O[C@@H]1[C@H](O)[C@@H](CCl)O[C@H]1n1cnc2c(N[C@@H]3C[C@@H]4CC[C@H]3C4)ncnc21` came in with a Ki in assay [2] of 3000 nM.

For the origin of these results see ChEMBL document CHEMBL1124342, “N6-bicycloalkyladenosines with unusually high potency and selectivity for the adenosine A1 receptor” (J Med Chem, 1989).
